Key:
[1] = Solubility of reaction components and additives in MS; assay type: physicochemical
[2] = Solubility of catalysts in MS and co-solvents

Compound: O=C(Oc1ccccc1)Oc1ccccc1 [Diphenyl Carbonate]
- Solubility in MS, T (90° C.) ([1]; 4.1 wt %, 0.5 g in 10 ml MS): Dissolved
- Stable at T (room) for: ([1]; solution in MS, 4.1 wt %): >24 h

Compound: CC(C)(c1ccccc1)c1ccc(O)cc1 [Para-Cumyl Phenol]
- Stable at T (room) for: [1]: >24 h
- Solubility in MS, T (room) ([1]; 4.1 wt %, 0.5 g in 10 ml MS): Dissolved
- Solubility in MS, T (room) ([1]; 17.5 wt %, 2.5 g in 10 ml MS): Dissolved
- Solubility in MS, T (room) ([1]; 29.7 wt %, 5 g in 10 ml MS): Dissolved

Compound: COC(=O)c1ccccc1OC(=O)Oc1ccccc1C(=O)OC [BMSC, bismethylsalicylcarbonate]
- Solubility in MS, T (90° C.) ([1]; 4.1 wt %, 0.5 g in 10 ml MS): Dissolved
- Solubility in MS, T (100° C.) ([1]; 17.5 wt %, 2.5 g in 10 ml MS): Dissolved
- Stable at T (room) for: ([1]; solution in MS, 4.1 wt %): >24 h
- Stable at T (room) for: ([1]; solution in MS, 17.5 wt %): >24 h

Compound: Oc1cccc(O)c1 [Resorcinol]
- Stable at T (room) for: ([1]; solution in MS, 0.8 wt %): >48 h
- Stable at T (room) for: ([1]; solution in MS, 7.8 wt %): >24 h

Compound: CC(=O)[O-].CCCC[N+](CCCC)(CCCC)CCCC [Tetra Butyl Ammonium Acetate]
- Stable at T (room) for: ([2]; 2.47 wt %, 10.0 ml MS, no co-solvent): >72 h

Compound: CC(C)(C)c1ccc(OP(Oc2ccc(C(C)(C)C)cc2C(C)(C)C)Oc2ccc(C(C)(C)C)cc2C(C)(C)C)c(C(C)(C)C)c1 [Irgafos 168]
- Solubility in MS, T (room) ([1]; 0.8 wt %, 0.1 g in 10 ml MS): Dissolved
- Solubility in MS, T (50° C.) ([1]; 4.1 wt %, 0.5 g in 10 ml MS): Dissolved
- Stable at T (room) for: ([1]; solution in MS, 0.8 wt %): 5 h
- Stable at T (room) for: ([1]; solution in MS, 4.1 wt %): <2 h

Compound: Cc1cc(O)ccc1O [Methyl hydroquinone]
- Solubility in MS, T (room) ([1]; 0.8 wt %, 0.1 g in 10 ml MS): Dissolved
- Solubility in MS, T (90° C.) ([1]; 7.8 wt %, 1 g in 10 ml MS): Dissolved

Compound: O=C(O)CCCCCCCCCCCCC(=O)O [1,12-Dodecanedicarboxylic acid]
- Solubility in MS, T (90° C.) ([1]; 0.8 wt %, 0.1 g in 10 ml MS): Dissolved
- Stable at T (room) for: ([1]; solution in MS, 0.8 wt %, result in words): Crystalized

Compound: CC(=O)[O-].[Cs+] [CS-Acetate]
- Solubility of catalyst, T (room) ([2]; 0.79 wt %, 0.1 g, 10.0 ml MS + 1.0 ml MeOH): Dissolved
- Stable at T (room) for: ([2]; 0.79 wt %, 10.0 ml MS + 1.0 ml MeOH): >24 h

Compound: O[C@@H]1CO[C@H]2[C@@H]1OC[C@@H]2O [Isosorbide, 1,4:3,6-dianhydro-D-sorbitol]
- Solubility in MS, T (room) ([1]; 0.8 wt %, 0.1 g in 10 ml MS): Dissolved
- Solubility in MS, T (room) ([1]; 4.1 wt %, 0.5 g in 10 ml MS): Dissolved
- Stable at T (room) for: ([1]; solution in MS, 0.8 wt %): >48 h
- Stable at T (room) for: ([1]; solution in MS, 4.1 wt %): >24 h

— patent US7671165B2, “Method of forming polycarbonate” (Sabic Innovative Plastics IP B.V., priority 2008, dated 2010)
